For the experiment, the system named is RGS2 protein levels. The experiment is described as follows: PathHunter ProLabel assay of RGS2 protein levels in HEK-293T-RGS2-PL cells. Type of experiment: cell-based, Human. Conditions: for RGS2 protein levels (PathHunter ProLabel): 100 μM compound overnight (16–18 hours). The method, then:
The PathHunter ProLabel assay was run as described previously ([Sjögren et al, 2012]; [Raveh et al, 2014]; [Sjögren et al, 2015]). Briefly, HEK-293T-RGS2-PL cells were plated at 10,000 cells per well in a white, tissue culture-treated 384-well plate (Perkin Elmer) in DMEM without phenol red (#21063; Gibco) and 0.1% BSA. The cells were allowed to attach for 4 hours, followed by treatment with DMSO, 10 μM MG-132, or 100 μM of compounds. Prior to the detection of RGS2 protein levels by the ProLabel assay, a fluorescent viability assay was performed in the same well, as described above. PathHunter ProLabel reagents (DiscoveRx) were prepared according to the manufacturer’s directions and added to the plate, followed by incubation at room temperature for 1 hour. Luminescence corresponding to RGS2-PL protein levels was detected using a Synergy Neo2 multimode plate reader.
Compounds that inhibit the interaction between RGS2 and FBXO44 would protect RGS2 from proteasomal degradation and result in increased RGS2 protein levels. We therefore next assayed our 20 hits for their ability to increase RGS2 protein levels. We first performed western blot analysis of HEK-293T cells transfected with RGS2-HA and FLAG-FBXO44 and treated overnight (16–18 hours) with 100 μM compound, using proteasome inhibitor MG-132 as a positive control (10 μM). […] Although somewhat disappointing, given the limited sensitivity of western blot, we opted to also test the compounds using an alternate assay paradigm. Specifically, we used the PathHunter ProLabel assay (DiscoveRx), an enzyme complementation assay in which a protein of interest is tagged with a 4 kDa part of β-galactosidase (ProLabel; PL). The chemiluminescent signal in the assay correlates with relative levels of the PL-tagged target protein. We previously developed a stable HEK-293T-RGS2-PL cell line that was used in several high-throughput screening campaigns ([Sjögren et al, 2012]; [Raveh et al, 2014]; [Sjögren et al, 2015]). The PathHunter ProLabel assay offers a more quantitative measurement of protein levels, with a larger dynamic range than a western blot. We treated HEK-293T-RGS2-PL cells overnight (16–18 hours) with 100 μM compound and used 10 μM MG-132 as a positive control.
As a further validation of the action of compound 10, we assessed whether the ability to increase RGS2 protein levels was dependent on FBXO44 using the PathHunter ProLabel assay. HEK-293T-RGS2-PL cells transfected with either nontargeting (NT) or FBXO44-targeting siRNA were treated overnight (16–18 hours) with vehicle or compound 10 (100 μM). […] Thus, compound 10 increases RGS2 protein levels through a mechanism that is dependent on FBXO44.

Regarding `CCC1CCCCN1S(=O)(=O)c1cc(Br)ccc1OC` (stereo not drawn) [Compound 10], the “RGS2 protein levels (PathHunter ProLabel)” value is “significantly increased RGS2 protein levels”. Also, the “RGS2 protein levels (PathHunter ProLabel)” value (listed as compound 10) is recorded as “significantly increased”. Further, under “100 μM overnight, FBXO44-targeting vs nontargeting siRNA”, the “Ability to increase RGS2 protein levels after siRNA-mediated FBXO44 knockdown (PathHunter ProLabel)” value is reported as “diminished ability”.
